Results reported in ChEMBL document CHEMBL4308901, “Synthesis and biological evaluation of BMS-986120 and its deuterated derivatives as PAR4 antagonists” (Bioorg Med Chem, 2019).

organism: Mus musculus; assay: Antiplatelet activity in ICR mouse platelet rich plasma assessed as inhibition of PAR4-AP-induced platelet aggregation pretreated for 5 mins followed by PAR4-AP addition by aggregometric analysis; type: functional

| IC50 | SMILES |
| --- | --- |
| 7.8 nM | COc1cc(OCc2nc(N3CCOCC3)sc2C)c2cc(-c3cn4nc(OC)sc4n3)oc2c1 |
| 14.5 nM | [2H]C(Oc1cc(OC)cc2oc(-c3cn4nc(OC)sc4n3)cc12)c1nc(N2CCOCC2)sc1C (stereo not drawn) |
| 6.97 nM | [2H]C([2H])([2H])Oc1cc(OCc2nc(N3CCOCC3)sc2C)c2cc(-c3cn4nc(OC([2H])([2H])[2H])sc4n3)oc2c1 |
| 8.74 nM | [2H]C([2H])([2H])Oc1nn2cc(-c3cc4c(OCc5nc(N6CCOCC6)sc5C)cc(OC)cc4o3)nc2s1 |
| 6.3 nM | [2H]C([2H])([2H])Oc1cc(OCc2nc(N3CCOCC3)sc2C)c2cc(-c3cn4nc(OC)sc4n3)oc2c1 |
| 8.15 nM | [2H]C(Oc1cc(OC([2H])([2H])[2H])cc2oc(-c3cn4nc(OC)sc4n3)cc12)c1nc(N2CCOCC2)sc1C (stereo not drawn) |
| 9.45 nM | [2H]C(Oc1cc(OC([2H])([2H])[2H])cc2oc(-c3cn4nc(OC([2H])([2H])[2H])sc4n3)cc12)c1nc(N2CCOCC2)sc1C (stereo not drawn) |
| 7.69 nM | [2H]C(Oc1cc(OC)cc2oc(-c3cn4nc(OC([2H])([2H])[2H])sc4n3)cc12)c1nc(N2CCOCC2)sc1C (stereo not drawn) |
